Earlier results in article PMC9207678 (Journal of Mass Spectrometry and Advances in the Clinical …, 2022).

Settings: ratio to insulin, ref [2], [3]

## C-peptide
  half-life in circulation relative to insulin: 6–10 times
